This passage reports IC50 results from patent US11820766B2, “Monoacylglycerol lipase modulators” (Janssen Pharmaceutica NV, priority 2018, dated 2023).

One experiment has as its target T1, human MGL from HeLa cells (Homo sapiens, UniProt Q99685).
T1 construct: combining endogenously expressed MGL from HeLa cells with test compounds; endogenous in cells; host or cells: HeLa cells / cell homogenates
T1 sequence (Q99685 1-303): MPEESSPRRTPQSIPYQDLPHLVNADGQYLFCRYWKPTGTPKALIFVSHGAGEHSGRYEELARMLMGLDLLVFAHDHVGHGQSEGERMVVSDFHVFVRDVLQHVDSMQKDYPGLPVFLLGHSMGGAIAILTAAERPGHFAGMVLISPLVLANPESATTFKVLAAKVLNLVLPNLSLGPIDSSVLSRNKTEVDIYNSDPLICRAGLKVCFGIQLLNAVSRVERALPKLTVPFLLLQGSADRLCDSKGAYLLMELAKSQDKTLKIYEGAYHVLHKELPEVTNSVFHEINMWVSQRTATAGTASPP
Nature of the experiment: In vitro MGL activity assay: [glycerol-1,3-3H]-oleyl glycerol cleavage by MGL from HeLa cells. Format: biochemical. Particulars: 300 nM [Glycerol-1,3-3H]-oleyl glycerol, one hour. An excerpt: MGL is the predominant hydrolase in HeLa cells/cell homogenates.
On to `COc1nccc(C(=O)N2CCc3c(nn(C)c3-c3ccc(F)c(C(F)F)c3)[C@@H]2C)c1C` [Example 593, [(7S)-3-[3-(Difluoromethyl)-4-fluoro-phenyl]-2,7-dimethyl-5,7-dihydro-4H-pyrazolo[3,4-c]pyridin-6-yl]-(2-methoxy-3-methyl-4-pyridyl)methanone], for which the IC50 amounted to 0.057 µM.

`C[C@H]1c2nn(C)c(-c3cc(F)c(F)c(F)c3)c2CCN1C(=O)c1cnc(-c2ccccn2)n1C` [Example 602, [(7S)-2,7-Dimethyl-3-(3,4,5-trifluorophenyl)-5,7-dihydro-4H-pyrazolo[3,4-c]pyridin-6-yl]-[3-methyl-2-(2-pyridyl)imidazol-4-yl]methanone] gave an IC50 of 0.46 µM.

In the case of `COc1ccc(F)cc1-c1c2c(nn1C)[C@H](C)N(C(=O)c1ccc3ncccc3c1)CC2` [Example 508, [(7S)-3-(5-Fluoro-2-methoxy-phenyl)-2,7-dimethyl-5,7-dihydro-4H-pyrazolo[3,4-c]pyridin-6-yl]-(6-quinolyl)methanone], half-maximal inhibition (IC50) required 0.07 µM.

The molecule `COc1nccc(C(=O)N2CCc3c(nn(C)c3-c3cc(F)cc(OC(F)F)c3)[C@@H]2C)c1C` [Example 597, [(7S)-3-[3-(Difluoromethoxy)-5-fluoro-phenyl]-2,7-dimethyl-5,7-dihydro-4H-pyrazolo[3,4-c]pyridin-6-yl]-(2-methoxy-3-methyl-4-pyridyl)methanone] registered an IC50 of 0.025 µM.

On to `C[C@H]1c2nn(C)c(-c3cc(F)c(F)c(F)c3)c2CCN1C(=O)c1c(F)cnc2c1ccn2C` [Example 370, [(7S)-2,7-Dimethyl-3-(3,4,5-trifluorophenyl)-5,7-dihydro-4H-pyrazolo[3,4-c]pyridin-6-yl]-(5-fluoro-1-methyl-pyrrolo[2,3-b]pyridin-4-yl)methanone], for which the half-maximal inhibitory concentration (IC50) stood at 0.0003 µM.

The molecule `C[C@H]1c2nn(C)c(-c3cc(F)c(F)c(F)c3)c2CCN1C(=O)c1nccc2cnn(C)c12` [Example 433, [(7S)-2,7-Dimethyl-3-(3,4,5-trifluorophenyl)-5,7-dihydro-4H-pyrazolo[3,4-c]pyridin-6-yl]-(1-methylpyrazolo[3,4-c]pyridin-7-yl)methanone] yielded an IC50 of 0.104 µM.

`C[C@H]1c2nn(C)c(-c3cncc(OC(F)F)c3)c2CCN1C(=O)c1ccc2ncccc2c1` [Example 528, [(7S)-3-[5-(Difluoromethoxy)-3-pyridyl]-2,7-dimethyl-5,7-dihydro-4H-pyrazolo[3,4-c]pyridin-6-yl]-(6-quinolyl)methanone] returned an IC50 of 0.397 µM.

In turn, `C[C@H]1c2nn(C)c(-c3ccc(F)c(Cl)c3)c2CCN1C(=O)c1ccc2ncccc2c1` [Example 505, [(7S)-3-(3-Chloro-4-fluoro-phenyl)-2,7-dimethyl-5,7-dihydro-4H-pyrazolo[3,4-c]pyridin-6-yl]-(6-quinolyl)methanone] displayed an IC50 of 0.00738 µM.

`C[C@H]1c2nn(C)c(-c3cc(F)c(F)c(F)c3)c2CCN1C(=O)c1cnc2n1CCCC2` [Example 560, [(7S)-2,7-Dimethyl-3-(3,4,5-trifluorophenyl)-5,7-dihydro-4H-pyrazolo[3,4-c]pyridin-6-yl]-(5,6,7,8-tetrahydroimidazo[1,2-a]pyridin-3-yl)methanone]: the IC50 worked out at 0.12 µM.

In turn, `C[C@H]1c2nn(C)c(-c3cc(F)c(F)c(F)c3)c2CCN1C(=O)c1cnc2n1CCOC2` [Example 562, 6,8-Dihydro-5H-imidazo[2,1-c][1,4]oxazin-3-yl-[(7S)-2,7-dimethyl-3-(3,4,5-trifluorophenyl)-5,7-dihydro-4H-pyrazolo[3,4-c]pyridin-6-yl]methanone] gave an IC50 of 0.717 µM.

Staying with this experiment, now noted: 300 nM [Glycerol-1,3-3H]-oleyl glycerol, one hour incubation.
`Cc1nc2sccn2c1C(=O)N1CCc2c(nn(C)c2-c2ccccc2)C1` [Example 32, (2-Methyl-3-phenyl-2,4,5,7-tetrahydro-6H-pyrazolo[3,4-c]pyridin-6-yl)(6-methylimidazo[2,1-b]thiazol-5-yl)methanone] yielded an IC50 of 1.09 µM.

For the molecule `Cn1nc2c(c1-c1ccccc1)CCN(C(=O)c1cnc3ccccn13)C2` [Example 81, Imidazo[1,2-a]pyridin-3-yl(2-methyl-3-phenyl-2,4,5,7-tetrahydro-6H-pyrazolo[3,4-c]pyridin-6-yl)methanone], the IC50 came out at 1.32 µM.

`Cn1nc2c(c1-c1ccccc1)CCN(C(=O)c1cccc3c1OC(F)(F)O3)C2` [Example 30, (2,2-Difluorobenzo[d][1,3]dioxol-4-yl)(2-methyl-3-phenyl-2,4,5,7-tetrahydro-6H-pyrazolo[3,4-c]pyridin-6-yl)methanone] had an IC50 of 1.04 µM.

`Cn1nc2c(c1-c1ccc(C(F)(F)F)s1)CCN(C(=O)c1ccc3ncccc3c1)C2` [Example 103, (2-Methyl-3-(5-(trifluoromethyl)thiophen-2-yl)-2,4,5,7-tetrahydro-6H-pyrazolo[3,4-c]pyridin-6-yl)(quinolin-6-yl)methanone] showed an IC50 of 0.264 µM.

For the molecule `C[C@H]1c2nn(C)c(-c3cc(F)c(F)c(F)c3)c2CCN1C(=O)c1cccc(-n2cccn2)n1` [Example 320, [(7S)-2,7-Dimethyl-3-(3,4,5-trifluorophenyl)-5,7-dihydro-4H-pyrazolo[3,4-c]pyridin-6-yl]-(6-pyrazol-1-yl-2-pyridyl)methanone], the IC50 was found to be 0.079 µM.

In turn, `C[C@H]1c2nn(C)c(-c3cc(F)c(F)c(F)c3)c2CCN1C(=O)c1cccn2cncc12` [Example 212, (S)-(2,7-Dimethyl-3-(3,4,5-trifluorophenyl)-2,4,5,7-tetrahydro-6H-pyrazolo[3,4-c]pyridin-6-yl)(imidazo[1,5-a]pyridin-8-yl)methanone] had an IC50 of 0.00556 µM.

For `C[C@H]1c2nn(C)c(-c3cc(F)c(F)c(F)c3)c2CCN1C(=O)c1cccc2cn[nH]c12` [Example 208, (S)-(2,7-Dimethyl-3-(3,4,5-trifluorophenyl)-2,4,5,7-tetrahydro-6H-pyrazolo[3,4-c]pyridin-6-yl)(1H-indazol-7-yl)methanone], it took 0.0342 µM to reach half-maximal inhibition (IC50).

`C[C@H]1c2nn(C)c(-c3cc(F)cc(F)c3)c2CCN1C(=O)c1ccnc2c1ccn2CCF` [Example 152, (S)-(3-(3,5-Difluorophenyl)-2,7-dimethyl-2,4,5,7-tetrahydro-6H-pyrazolo[3,4-c]pyridin-6-yl)(1-(2-fluoroethyl)-1H-pyrrolo[2,3-b]pyridin-4-yl)methanone] yielded an IC50 of 0.00163 µM.

Turning to `COc1cc(C(=O)N2CCc3c(nn(C)c3-c3cc(F)c(F)c(F)c3)[C@@H]2C)c2ccccc2n1` [Example 240, (S)-(2,7-Dimethyl-3-(3,4,5-trifluorophenyl)-2,4,5,7-tetrahydro-6H-pyrazolo[3,4-c]pyridin-6-yl)(2-methoxyquinolin-4-yl)methanone], the concentration for half-maximal inhibition (IC50) is 0.00069 µM.

In turn, `Cn1nc2c(c1-c1cccc(F)c1)CCN(C(=O)c1ccc3ncccc3c1)C2` [Example 100, (3-(3-Fluorophenyl)-2-methyl-2,4,5,7-tetrahydro-6H-pyrazolo[3,4-c]pyridin-6-yl)(quinolin-6-yl)methanone] yielded an IC50 of 0.125 µM.

Take `C[C@H]1c2nn(C)c(-c3cc(F)c(F)c(F)c3)c2CCN1C(=O)c1ccc(-c2ccccn2)s1` [Example 325, [(7S)-2,7-Dimethyl-3-(3,4,5-trifluorophenyl)-5,7-dihydro-4H-pyrazolo[3,4-c]pyridin-6-yl]-[5-(2-pyridyl)-2-thienyl]methanone]: the IC50 came to 0.0079 µM.

A word on the IC50: it is the midpoint of a concentration-inhibition curve. A lower IC50 goes with inhibition by little substance.
